Data reported in the supplement of paper PMC11061612.

How the values were obtained:
Experiment in all cases: Bliss excess, mean over the matrix (fraction); higher = more synergy
[1] = test system: CHSA8926 (Chondrosarcoma)
Method in brief: (§1)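 Bliss excess equals the observed combination effect minus the expected value EA + EB − EA·EB, where EA and EB are the effects of each agent alone. Combination Emax is the second-highest inhibition within the matrix. Inhibition was scaled from CellTiter-Glo 2.0 luminescence, with 0 set by vehicle wells and 1 by blank wells, after 72 hours of two-drug dosing of cells plated in 1536-well plates.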

[2] = test system: DAN-G (Pancreatic Carcinoma)
Method in brief: as §1

[3] = test system: ESO51 (Esophageal Adenocarcinoma)
Method in brief: as §1

[4] = test system: HCC1187 (Breast Carcinoma)
Method in brief: as §1

[5] = test system: HCC1419 (Breast Carcinoma)
Method in brief: as §1

[6] = test system: IM-95 (Gastric Carcinoma)
Method in brief: as §1

[7] = test system: KMS-12-BM (Plasma Cell Myeloma)
Method in brief: as §1

[8] = test system: KP-3 (Pancreatic Carcinoma)
Method in brief: as §1

[9] = test system: KYSE-270 (Esophageal Squamous Cell Carcinoma)
Method in brief: as §1

M059J (Glioblastoma) = test system: M059J (Glioblastoma)
Method in brief: as §1

[10] = test system: MN-60 (B-Lymphoblastic Leukemia)
Method in brief: as §1

[11] = test system: MOLM-13 (Acute Myeloid Leukemia)
Method in brief: as §1

NCI-H2731 (Mesothelioma) = test system: NCI-H2731 (Mesothelioma)
Method in brief: as §1

[12] = test system: NCI-H520 (Squamous Cell Lung Carcinoma)
Method in brief: as §1

[13] = test system: NCI-H526 (Small Cell Lung Carcinoma)
Method in brief: as §1

SJSA-1 (Osteosarcoma) = test system: SJSA-1 (Osteosarcoma)
Method in brief: as §1

[14] = test system: SK-GT-2 (Gastric Carcinoma)
Method in brief: as §1

[15] = test system: SNU-398 (Hepatocellular Carcinoma)
Method in brief: as §1

[16] = test system: ST486 (Burkitt's Lymphoma)
Method in brief: as §1

[17] = test system: T-T (Esophageal Squamous Cell Carcinoma)
Method in brief: as §1

Structure (SMILES)	Bliss excess [1]	Bliss excess [2]	Bliss excess [3]	Bliss excess [4]	Bliss excess [5]	Bliss excess [6]	Bliss excess [7]	Bliss excess [8]	Bliss excess [9]	Bliss excess (M059J (Glioblastoma))	Bliss excess [10]	Bliss excess [11]	Bliss excess (NCI-H2731 (Mesothelioma))	Bliss excess [12]	Bliss excess [13]	Bliss excess (SJSA-1 (Osteosarcoma))	Bliss excess [14]	Bliss excess [15]	Bliss excess [16]	Bliss excess [17]
CN(CCO)CC[C@H](CSc1ccccc1)Nc1ccc(S(=O)(=O)NC(=O)c2ccc(N3CCC([C@@H](O)c4ccccc4-c4ccc(Cl)cc4)CC3)cc2)cc1S(=O)(=O)C(F)(F)F [AZD4320] + C=CCn1c(=O)c2cnc(Nc3ccc(N4CCN(C)CC4)cc3)nc2n1-c1cccc(C(C)(C)O)n1 [AZD1775] (first compound max 1 µM, partner max 1 µM)	0.102	0.0078	0.0693	-0.0064	-0.0722	-0.0023	0.0716	-0.0417	0.0126	0.0448	-0.0058	0.0252	-0.0106	-0.0444	0.0367	-0.0545	0.0322	-0.0291	-0.0447	0.0409
C[C@@H](c1ccc2nccn2c1)n1nnc2ncc(-c3cnn(C)c3)nc21 [Savolitinib] + CC1(C)CCC(CN2CCN(c3ccc(C(=O)NS(=O)(=O)c4ccc(NCC5CCOCC5)c([N+](=O)[O-])c4)c(Oc4cnc5[nH]ccc5c4)c3)CC2)=C(c2ccc(Cl)cc2)C1 [Venetoclax] (first compound max 1 µM, 7x7, partner max 1 µM)	0.0023	-0.09	-0.0334	-0.0494	-0.0225	-0.0368	0.0253	-0.0762	-0.0463	-0.0321	-0.0341	0.0025	-0.0423	-0.0333	0.0111	-0.0775	-0.0144	-0.057	-0.0481	0.011
COc1nnc2ccc(N3CCC(c4ccc(OCCN5CCN(C)C(=O)[C@H]5C)cc4)CC3)nn12 [AZD5153] + Cc1c2c(nn1C)CSCc1cc(n(C)n1)CSc1cc(c3ccccc3c1)OCCCc1c(C(=O)O)n(C)c3c-2c(Cl)ccc13 [AZD5991] (first compound max 1 µM, 7x7, partner max 1 µM)	-0.0166	-0.0163	-0.0093	0.0079	-0.0411	-0.0477	-0.0116	-0.0446	0.0085	-0.0072	-0.0765	-0.0238	-0.0327	-0.0174	0.03	-0.0673	0.0224	-0.0431	-0.0275	-0.0157
CCc1c2c(nc3ccc(O)cc13)-c1cc3c(c(=O)n1C2)COC(=O)[C@]3(O)CC [SN-38] + CN(C)CCCOc1ccc(-c2ccc3ncc4c(c3c2)n(C2CCOCC2)c(=O)n4C)cn1 [AZD0156] (first compound max 0.3 µM, 7x7, partner max 1 µM)	-0.0646	0.0626	-0.031	-0.0347	-0.0773	0.0208	0.0462	-0.0372	-0.0393	-0.0104	0.0279	0.0493	-0.0407	0.0044	0.0215	-0.0469	0.0054	0.0255	0.0498	-0.0151
CC1(C)CCC(CN2CCN(c3ccc(C(=O)NS(=O)(=O)c4ccc(NCC5CCOCC5)c([N+](=O)[O-])c4)c(Oc4cnc5[nH]ccc5c4)c3)CC2)=C(c2ccc(Cl)cc2)C1 [Venetoclax] + C=CCn1c(=O)c2cnc(Nc3ccc(N4CCN(C)CC4)cc3)nc2n1-c1cccc(C(C)(C)O)n1 [AZD1775] (first compound max 1 µM, partner max 1 µM)	-0.0333	-0.0114	-0.0404	-0.0522	-0.0261	0.0197	0.0356	-0.0085	0.0742	-0.0663	-0.0285	0.0122	-0.0295	-0.0031	-0.0183	-0.0733	0.0014	0.0035	0.108	0.0832
CC1(C)CCC(CN2CCN(c3ccc(C(=O)NS(=O)(=O)c4ccc(NCC5CCOCC5)c([N+](=O)[O-])c4)c(Oc4cnc5[nH]ccc5c4)c3)CC2)=C(c2ccc(Cl)cc2)C1 [Venetoclax] + C[C@@H]1COCCN1C2=NC(=NC(=C2)C3(CC3)[S@](=N)(=O)C)C4=C5C=CNC5=NC=C4 [AZD6738] (first compound max 1 µM, 7x7, partner max 10 µM)	-0.0216	-0.0536	-0.0093	-0.0095	-0.0479	-0.0191	-0.012	-0.0227	-0.0188	-0.0258	0.0434	0.0068	-0.0713	-0.0733	0.0144	-0.0447	0.0388	-0.0662	-0.0369	-0.0286
COc1nnc2ccc(N3CCC(c4ccc(OCCN5CCN(C)C(=O)[C@H]5C)cc4)CC3)nn12 [AZD5153] + CCN(CCO)CCCOc1ccc2c(Nc3cc(CC(=O)Nc4cccc(F)c4)[nH]n3)ncnc2c1 [AZD2811] (first compound max 1 µM, 7x7, partner max 1 µM)	-0.035	-0.0611	-0.0152	-0.0934	-0.0414	-0.0664	0.0641	-0.0359	-0.054	-0.0225	-0.0224	0.0176	-0.0294	0.0242	-0.0332	-0.0335	-0.0314	-0.0495	-0.0647	-0.0284
